Source: patent US20090012152A1, “Use of Tetramic Acid Derivatives for Controlling Insects from the Genus of the Plane Lice (Sternorrhyncha)” (Bayer CropScience Aktiengesellschaft, priority 2005, published 2009)

Key:
Assay type in all cases: in vivo
Aphis pomi = assay: Example 41: apple trees treated against Aphis pomi (Henderson and Tilton); details: live animals on shoots, % a.i.: imidacloprid 0.007, I-9 0.0144, I-2 0.0144; for Effect (%) 7 d: 7 d after treatment; for Effect (%) 14 d: 14 d after treatment
Description: In three replications, three about 8-year-old apple trees of the cultivar “Golden Delicious” are treated eradicatively against Dysaphis plantaginea and Aphis pomi. The application is carried out using a motor-operated barrow-mounted sprayer. Here, the active compounds Example (I-9) (240 SC) and Example (I-2) (240 SC) in the stated amount are tested against the commercial standard imidacloprid (200 SL), at the stated application rate. The application rate is 1200 l of water/ha.
Evaluation is carried out before and also 7 d and 14 d after the treatment by counting the live animals on the shoots. The efficacy is then calculated by calculating the effect on the population in percent according to Henderson and Tilton.

Lepidosaphes beckii = assay: Example 18: citrus trees treated against Lepidosaphes beckii; details: 140 days after treatment, larvae on fruits, g a.i./ha/m crown height: pyriproxyfen 50, I-4 48
Description: In three replications, in plots of a size of about 20 m^2, citrus trees of the cultivar “Oro Nules” are treated against Lepidosaphes beckii. The application is carried out using a high-pressure sprayer. Here, the active compound Example (I-4) (240 SC) in a tank mix with 0.1% a.i. of rapeseed oil methyl ester (500 EW) is tested against the commercial standard pyriproxyfen (100 EC), at the stated application rates. The application rate is 2500 l of water/ha.
Evaluation is carried out 140 days after the treatment by rating the kill of the larvae on the fruits.

Paratrioza cockerelli = assay: Example 7: bell peppers treated against Paratrioza cockerelli; details: nymphs on leaves, g a.i./ha: imidacloprid 52.6, I-4 72, dimethoate 561; for Kill (%) 7 d: 7 d after treatment; for Kill (%) 15 d: 15 d after treatment
Description: In four replications, plots of a size of about 7 m^2 with bell peppers of the cultivar “Jupiter” are treated against Paratrioza cockerelli. The application is carried out with a knapsack sprayer operated with pressurized air. Here, the active compound Example (I-4) (240 SC) is applied in a tank mix with 0.2% a.i. of rapeseed oil methyl ester (500 EW) and the commercial standards imidacloprid 192 SC and dimethoate (480 EC) are applied in a tank mix with 0.125% Induce at the stated application rates. The application is carried out with an application rate of 467 l of water/ha.
Evaluation is carried out 7 and 15 days after the treatment by rating the kill of the animals (nymphs) on the leaves.

Aspidiotus neri = assay: Example 20: lime trees treated against Aspidiotus neri; details: 167 d after treatment, on fruits, % a.i.: Dursban 0.096, Juvinal 0.005, I-4 0.0072
Description: In four replications, about 5-year-old lime trees of the cultivar “Fino” are treated against Aspidiotus neri. The application is carried out using a knapsack sprayer. Here, the active compound Example (I-4) (240 SC) in a tank mix with 0.1% a.i. of rapeseed oil methyl ester (500 EW) at the stated application rate is tested against the standards Dursban (480 EC) and Juvinal (100 EC) at the stated amounts, applied once. The application rate is 3000 l of water/ha per tree.
Evaluation is carried out 167 days after the treatment by rating the kill on the fruits.

Myzus persicae = assay: Example 46: head lettuce treated against Myzus persicae; details: nymphs on plants, g a.i./ha: endosulfan 1120, I-4 48
Description: In four replications, plots of a size of about 33 m^2 with head lettuce of the cultivar “PIC 714” are treated against Aulacorthum solani, Macrosiphum euphorbiae and Myzus persicae. The application is carried out using a tractor sprayer. Here, the active compound Example (I-4) (240 SC), in a tank mix with 0.2% a.i. of rapeseed oil methyl ester (500 EW), is tested against the commercial standard endosulfan (360 EC), at the stated application rates. The application rate is 187 l of water/ha. Two treatments are carried out, at an interval of 22 days.
Evaluation is carried out 8, 22, 30 and 40 days after the first treatment by rating the kill of the nymphs on the plants.

Bemisia argentifolii = assay: Example 37: cantaloupe melons treated against Bemisia argentifolii; details: nymphs on leaves, g a.i./ha: endosulfan 1120, I-4 48
Description: In four replications, plots of a size of about 39 m^2 with cantaloupe melons of the cultivar “Western Shipper” are treated against Bemisia argentifolii. The application is carried out using a knapsack sprayer operated with pressurized air. Here, the active compound Example (I-4) (240 SC), in a tank mix with 0.2 a.i. of rapeseed oil methyl ester (500 EW), and the commercial standard endosulfan (360 EC) are tested at the stated application rates. Two applications are carried out at an interval of 16 days. The application rate is 187 l of water/ha.
Evaluation is carried out 5, 13, 21 and 29 days after the first treatment by rating the kill of the animals (nymphs) on the leaves.

Dysmicoccus brevipes = assay: Example 30: pineapple plants treated against Dysmicoccus brevipes; details: nymphs on pineapple plants, g a.i./ha: Confidor OD 140, I-4 75
Description: In five replications, pineapple plants of the cultivar “MD2” of a height of about 35 cm are treated against Dysmicoccus brevipes. The application is carried out using a motor-operated knapsack sprayer. Here, the active compound Example (I-4) (150 OD) is tested against the commercial standard Confidor OD (240 OD), at the stated application rates. The application rate is 4000 l of water/ha. Both active compounds are sprayed as a tank mix with 500 g of a.i./ha of adjuvant NP-7 and 4 l of a.i./ha of mineral oil.
Evaluation is carried out 9, 23 and 37 days after the treatment by rating the kill of the nymphs on the plants.

Dysaphis plantaginea = assay: Example 40: apple trees treated against Dysaphis plantaginea; details: population on shoots, % a.i.: imidacloprid 0.007, I-9 0.0144, I-4 0.0144; for Kill (%) 14 d: 14 d after treatment; for Kill (%) 21 d: 21 d after treatment
Description: In three replications, three about 22-year-old apple trees of the cultivar “Golden Delicious” are treated eradicatively against Dysaphis plantaginea and Aphis pomi. The application is carried out using a motor-operated barrow-mounted sprayer. Here, the active compounds Example (I-9) (240 SC) and Example (I-4) (240 SC) in the stated amount are tested against the commercial standard imidacloprid (200 SL), at the stated application rate. The application rate is 1200 l of water/ha.
Evaluation is carried out 14 d and 21 d after the treatment by rating the kill of the population on the shoots.

SMILES: CCOC(=O)OC1=C(c2cc(C)ccc2Br)C(=O)NC12CCC(OC)CC2 (stereo not drawn) [Example (I-2)]
- Effect (%) 7 d (Aphis pomi): 99.1%
- Effect (%) 14 d (Aphis pomi): 97.1%

SMILES: CCOC(=O)OC1=C(c2cc(C)ccc2C)C(=O)NC12CCC(OC)CC2 (stereo not drawn) [Example (I-4)]
- Kill (%) 140 days (Lepidosaphes beckii): 100%
- Kill (%) 7 d (Paratrioza cockerelli): 90%
- Kill (%) 15 d (Paratrioza cockerelli): 100%
- Kill (%) 167 d (Aspidiotus neri): 96.2%
- Kill (%) 8 d (Myzus persicae; 8 d after first of two treatments): 95%
- Kill (%) 22 d (Myzus persicae; 22 d after first of two treatments): 100%
- Kill (%) 30 d (Myzus persicae; 30 d after first of two treatments): 88%
- Kill (%) 5 d (Bemisia argentifolii; 5 d after first of two treatments): 100%
- Kill (%) 13 d (Bemisia argentifolii; 13 d after first of two treatments): 100%
- Kill (%) 21 d (Bemisia argentifolii; 21 d after first of two treatments): 98.1%
- Kill (%) 29 d (Bemisia argentifolii; 29 d after first of two treatments): 90.5%
- Kill (%) 9 days (Dysmicoccus brevipes; 9 days after treatment): 80.9%
- Kill (%) 23 days (Dysmicoccus brevipes; 23 days after treatment): 84.0%
- Kill (%) 37 days (Dysmicoccus brevipes; 37 days after treatment): 91.3%
- Kill (%) 14 d (Dysaphis plantaginea): 99.3%
- Kill (%) 21 d (Dysaphis plantaginea): 100%

SMILES: O=[N+]([O-])NC1=NCCN1Cc1ccc(Cl)nc1 [imidacloprid, reference compound]
- Kill (%) 7 d (Paratrioza cockerelli): 90%
- Kill (%) 15 d (Paratrioza cockerelli): 0%
- Effect (%) 7 d (Aphis pomi): 99%
- Effect (%) 14 d (Aphis pomi): 83.5%
- Kill (%) 14 d (Dysaphis plantaginea): 97.6%
- Kill (%) 21 d (Dysaphis plantaginea): 99.8%
